Assay results reported in PubChem BioAssay (NCI).
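The compound was tested at five concentrations on cells cultured in 96-well plates, with a 48-hour exposure period. TGI denotes the concentration required for complete inhibition of growth.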

Experiments:
Assay in all cases: NCI-60 cell line screen, 48 h
[1] = tested on: CAKI-1 renal
[2] = tested on: SF-539 CNS
[3] = tested on: SK-MEL-28 melanoma
[4] = tested on: MALME-3M melanoma
[5] = tested on: UO-31 renal
[6] = tested on: COLO 205 colon
[7] = tested on: M14 melanoma
[8] = tested on: SK-MEL-5 melanoma
[9] = tested on: OVCAR-4 ovarian
[10] = tested on: SNB-19 CNS
[11] = tested on: NCI/ADR-RES ovarian
[12] = tested on: SK-OV-3 ovarian
[13] = tested on: UACC-257 melanoma
[14] = tested on: SNB-75 CNS
[15] = tested on: SW-620 colon
[16] = tested on: NCI-H460 lung
[17] = tested on: OVCAR-8 ovarian
[18] = tested on: MCF7 breast
[19] = tested on: HCT-116 colon
[20] = tested on: SF-295 CNS

In the case of `Clc1ncnc2c1nc(C#Cc1ccccc1)n2Cc1ccccc1`, the TGI [1] is reported as 37.1 µM, the TGI [2] is reported as 83.8 µM and the TGI [3] is reported as 44.2 µM. It also gave a TGI [4] of over 100 µM, a TGI [5] of 5.47 µM and a TGI [6] of 45.8 µM. It also gave a TGI [7] of 53 µM, a TGI [8] of over 100 µM and a TGI [9] of 35.8 µM. It also gave a TGI [10] of over 100 µM, a TGI [11] of over 100 µM and a TGI [12] of over 100 µM. For the same compound, the TGI [13] was 74.7 µM, the TGI [14] was 92.2 µM and the TGI [15] was over 100 µM. The TGI [16] was over 100 µM, the TGI [17] was 53.9 µM and the TGI [18] was over 100 µM. The TGI [19] was over 100 µM and the TGI [20] was over 100 µM.
Work on `N=c1oc2ccc(Cl)cc2cc1C(=O)Nc1ccccc1` yielded a TGI [1] of over 100 µM, a TGI [2] of over 100 µM and a TGI [3] of over 100 µM. The TGI [4] was over 100 µM, the TGI [5] was over 100 µM and the TGI [6] was over 100 µM. It also gave a TGI [7] of over 100 µM, a TGI [8] of over 100 µM and a TGI [9] of over 100 µM. It also gave a TGI [10] of over 100 µM, a TGI [11] of over 100 µM and a TGI [12] of over 70.2 µM. It also gave a TGI [13] of over 100 µM, a TGI [14] of over 86.4 µM and a TGI [15] of over 100 µM. For the same compound, the TGI [16] was over 100 µM, the TGI [17] was over 100 µM and the TGI [18] was over 100 µM. The TGI [19] was over 100 µM and the TGI [20] was over 100 µM.
`c1ccc2c(c1)CCN2CCc1c[nH]c2ccccc12` gave a TGI [1] of over 10 µM, a TGI [2] of over 10 µM and a TGI [3] of over 10 µM. For the same compound, the TGI [4] was over 10 µM, the TGI [5] was over 10 µM and the TGI [6] was over 10 µM. For the same compound, the TGI [7] was over 10 µM, the TGI [8] was over 10 µM and the TGI [9] was over 10 µM. For the same compound, the TGI [10] was over 10 µM, the TGI [11] was over 10 µM and the TGI [12] was over 10 µM. It also gave a TGI [13] of over 10 µM, a TGI [14] of over 10 µM and a TGI [15] of over 10 µM. It also gave a TGI [16] of over 10 µM, a TGI [17] of over 10 µM and a TGI [18] of over 10 µM. It also gave a TGI [19] of over 10 µM and a TGI [20] of over 10 µM.
`CN1C(=O)C(O)CC1c1cccc(F)c1` (stereo not given) gave a TGI [1] of over 100 µM, a TGI [2] of over 100 µM and a TGI [3] of over 100 µM. The TGI [4] was over 100 µM, the TGI [5] was over 100 µM and the TGI [6] was over 100 µM. It also gave a TGI [7] of over 100 µM, a TGI [8] of over 100 µM and a TGI [9] of over 100 µM. For the same compound, the TGI [10] was over 100 µM, the TGI [11] was over 100 µM and the TGI [12] was over 100 µM. The TGI [13] was over 100 µM, the TGI [14] was over 100 µM and the TGI [15] was over 100 µM. For the same compound, the TGI [16] was over 100 µM, the TGI [17] was over 100 µM and the TGI [18] was over 100 µM. For the same compound, the TGI [19] was over 100 µM and the TGI [20] was over 100 µM.
For `Cc1ccc(C(=O)C#Cc2cn(C3CC(O)C(CO)O3)c(=O)[nH]c2=O)cc1` (stereo not given), the TGI [1] was over 100 µM, the TGI [2] was over 100 µM and the TGI [3] was over 100 µM. For the same compound, the TGI [4] was 29.1 µM, the TGI [5] was over 100 µM and the TGI [6] was over 100 µM. For the same compound, the TGI [7] was over 100 µM, the TGI [8] was over 100 µM and the TGI [9] was over 100 µM. The TGI [10] was over 100 µM, the TGI [11] was over 100 µM and the TGI [12] was over 100 µM. The TGI [13] was over 100 µM, the TGI [14] was over 100 µM and the TGI [15] was 89.2 µM. For the same compound, the TGI [16] was over 100 µM, the TGI [17] was over 100 µM and the TGI [18] was over 100 µM. The TGI [19] was over 100 µM and the TGI [20] was over 100 µM.
`CC1CC[C@@]2(OC1)OC1C[C@H]3[C@@H]4CC[C@H]5CC(OC6OC(CO)C(OC7OC(CO)C(O)C(O)C7O)C(O)C6O)CCC5(C)[C@H]4CCC3(C)C1[C@@H]2C` (stereo not given in full) was tested, and the TGI [1] was 16.9 µM, the TGI [2] was 16.3 µM and the TGI [3] was 16.6 µM. The TGI [4] was 15.7 µM, the TGI [5] was 22.5 µM and the TGI [6] was 14 µM. For the same compound, the TGI [7] was 18.2 µM, the TGI [8] was 16.1 µM and the TGI [9] was 17.1 µM. For the same compound, the TGI [10] was 17.9 µM, the TGI [11] was 19.9 µM and the TGI [12] was 18.7 µM. It also gave a TGI [13] of 18.3 µM, a TGI [14] of 18.7 µM and a TGI [15] of 17.8 µM. It also gave a TGI [16] of 21.1 µM, a TGI [17] of 16.7 µM and a TGI [18] of 15 µM. It also gave a TGI [19] of 15 µM and a TGI [20] of 16.4 µM.
Work on `Cc1cc(NS(=O)(=O)c2ccc(Nc3c4ccccc4nc4ccc(C(=O)Nc5ccc(S(=O)(=O)N=C(N)N)cc5)cc34)cc2)no1` yielded a TGI [1] of over 100 µM, a TGI [2] of over 100 µM and a TGI [3] of over 100 µM. It also gave a TGI [4] of over 100 µM, a TGI [5] of over 100 µM and a TGI [6] of over 100 µM. For the same compound, the TGI [7] was over 100 µM, the TGI [8] was over 100 µM and the TGI [9] was over 100 µM. It also gave a TGI [10] of over 100 µM, a TGI [11] of over 100 µM and a TGI [12] of over 100 µM. For the same compound, the TGI [13] was over 100 µM, the TGI [14] was over 100 µM and the TGI [15] was over 100 µM. The TGI [16] was over 100 µM, the TGI [17] was over 100 µM and the TGI [18] was over 100 µM. It also gave a TGI [19] of over 100 µM and a TGI [20] of over 100 µM.
In the case of `N#Cc1ccc(OCc2ccc3nc(-c4ccccc4)c(Cl)nc3c2)cc1`, the TGI [1] is reported as over 100 µM, the TGI [2] is reported as over 100 µM and the TGI [3] is reported as over 100 µM. It also gave a TGI [4] of over 100 µM, a TGI [5] of over 100 µM and a TGI [6] of over 100 µM. It also gave a TGI [7] of over 100 µM, a TGI [8] of over 100 µM and a TGI [9] of over 100 µM. It also gave a TGI [10] of over 100 µM, a TGI [11] of over 100 µM and a TGI [13] of over 100 µM. It also gave a TGI [14] of over 100 µM, a TGI [15] of over 100 µM and a TGI [16] of over 100 µM. For the same compound, the TGI [17] was over 100 µM, the TGI [18] was over 100 µM and the TGI [19] was over 100 µM. For the same compound, the TGI [20] was over 100 µM.
Compound `CN(N)/N=N/c1nc[nH]c1C(N)=O` has a TGI [1] of 55.2 µM, a TGI [2] of over 100 µM and a TGI [3] of over 100 µM. The TGI [4] was over 100 µM, the TGI [5] was over 62.2 µM and the TGI [6] was over 69.7 µM. The TGI [7] was over 100 µM, the TGI [8] was over 100 µM and the TGI [9] was over 100 µM. It also gave a TGI [10] of over 100 µM, a TGI [11] of over 100 µM and a TGI [12] of over 100 µM. For the same compound, the TGI [13] was over 100 µM, the TGI [14] was over 100 µM and the TGI [15] was over 100 µM. The TGI [16] was over 71.5 µM, the TGI [17] was over 100 µM and the TGI [18] was over 100 µM. It also gave a TGI [19] of over 100 µM and a TGI [20] of over 70.9 µM.
`C/C(=N\NC(N)=O)C(CN(C)C)C(c1ccccc1)c1c(O)c2ccccc2oc1=O` (stereo not given) gave a TGI [1] of over 100 µM, a TGI [2] of over 100 µM and a TGI [3] of over 100 µM. The TGI [4] was over 100 µM, the TGI [5] was over 100 µM and the TGI [6] was over 100 µM. For the same compound, the TGI [7] was over 100 µM, the TGI [8] was over 100 µM and the TGI [9] was over 100 µM. The TGI [10] was over 100 µM, the TGI [11] was over 100 µM and the TGI [13] was over 100 µM. The TGI [14] was over 100 µM, the TGI [15] was over 100 µM and the TGI [16] was over 100 µM. For the same compound, the TGI [17] was over 100 µM, the TGI [18] was over 100 µM and the TGI [19] was over 100 µM. The TGI [20] was over 100 µM.
With `Nc1ccc(S(=O)(=O)c2ccc(NC(=O)c3cccnc3)cc2)cc1` the TGI [1] was over 100 µM, the TGI [3] was over 100 µM and the TGI [4] was over 100 µM. It also gave a TGI [5] of over 100 µM, a TGI [6] of over 100 µM and a TGI [7] of over 100 µM. It also gave a TGI [8] of over 100 µM, a TGI [9] of over 100 µM and a TGI [10] of over 100 µM. It also gave a TGI [11] of over 100 µM, a TGI [12] of over 100 µM and a TGI [13] of over 100 µM. For the same compound, the TGI [14] was over 100 µM, the TGI [15] was over 100 µM and the TGI [16] was over 100 µM. The TGI [17] was over 100 µM, the TGI [18] was over 100 µM and the TGI [19] was over 100 µM. It also gave a TGI [20] of over 100 µM.
In the case of `CC1CC/C(=C\c2ccc(N(C)C)cc2)C(=O)/C1=C/c1ccc(N(C)C)cc1` (stereo not given), the TGI [1] is reported as over 100 µM, the TGI [2] is reported as over 100 µM and the TGI [3] is reported as over 100 µM. The TGI [4] was over 100 µM, the TGI [5] was over 100 µM and the TGI [6] was over 100 µM. The TGI [7] was over 100 µM, the TGI [8] was over 100 µM and the TGI [9] was over 100 µM. For the same compound, the TGI [11] was over 100 µM, the TGI [12] was over 100 µM and the TGI [13] was over 100 µM. The TGI [14] was over 100 µM, the TGI [15] was over 100 µM and the TGI [17] was over 100 µM. The TGI [18] was over 100 µM, the TGI [19] was over 100 µM and the TGI [20] was over 100 µM.
